Values of other authors as cited in US20240368262A1, “A MYOSTATIN PATHWAY INHIBITOR IN COMBINATION WITH A GLP-1 PATHWAY ACTIVATOR FOR USE IN TREATING METABOLIC DISORDERS” (SCHOLAR ROCK, INC., priority 2021, published 2024).

System: GIP and GLP-1 receptor
Conditions: Rosenstock et al., Lancet; cited from earlier work

Substance: Tirzepatide
- body weight: reduce body weight
- glycemic control: improve glycemic control
